Read-outs that look alike come from different tables or passages of the source.
Assays:
primary rat microglia [1] = assay: Cell toxicity (dead cells, size <150 μm2) in coated fibrin (cFib) assay;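 note: share of dead cells sized under 150 µm2 at 10 µM in fibrin-stimulated microglia HTS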
[2] = test system: LPS-induced microglia activation; assay: Image-based assay of LPS-induced microglia activation (HTS and dose response); format: cell-based, rat; conditions: for inhibition at 10 µM: Rattus norvegicus, Microglia, read-out: LPS % inhibition
primary rat microglia [3] = assay: Cell toxicity (dead cells, size <150 μm2) in LPS assay
[4] = test system: fibrin-induced microglia activation; assay: Image-based assay of fibrin-induced microglia activation (HTS and dose response); format: cell-based, rat; conditions: for inhibition at 10 µM: Rattus norvegicus, Microglia, read-out: Fibrin % inhibition
[5] = test system: fibrin- and LPS-induced microglia activation; assay: cells; format: cell-based, rat
[6] = primary microglia HTS, fibrin stimulation, decreased size (<150 μm^2) as marker of toxicity
[7] = 48 h, primary microglia HTS, LPS stimulation, increased cell size (>800 μm^2) as marker of activation
[8] = primary microglia HTS, LPS stimulation, decreased size (<150 μm^2) as marker of toxicity
[9] = primary microglia HTS, fibrin stimulation, increased cell size (>800 μm^2) as marker of activation
[10] = quadrant by fibrin and LPS inhibition in HTS of 1907 compounds
[11] = primary HTS, 10 μM, fibrin assay, dead cells size <150 μm2
[12] = primary HTS, 10 μM, LPS-stimulated primary microglia
[13] = primary HTS, 10 μM, LPS assay, dead cells size <150 μm2
[14] = primary HTS, 10 μM, fibrin-stimulated primary microglia

Structure (SMILES) | Fibrin % cell toxicity (primary rat microglia [1]; [6]) [%] | inhibition at 10 µM [2, 7] [%] | LPS % cell toxicity (primary rat microglia [3]; [8]) [%] | inhibition at 10 µM [4, 9] [%] | Quadrant (FIG. 5b) [5, 10] | Fibrin % cell toxicity (primary rat microglia [1]; [11]) [%] | inhibition at 10 µM [2, 12] [%] | LPS % cell toxicity (primary rat microglia [3]; [13]) [%] | inhibition at 10 µM [4, 14] [%] | Quadrant (FIG. 5b) ([5]; primary HTS, 10 μM) | LPS % inhibition ([2]; primary microglia HTS, LPS stimulation, increased cell size (>800 μm^2) as marker of activation) [%] | Fibrin % inhibition [4, 9] [%] | LPS % inhibition [2, 12] [%] | Fibrin % inhibition [4, 14] [%]
Cc1nc2ccccc2n1Cc1ccc(Cl)cc1 [Chlormidazole] | 1 | 70 | 2 | 38 | Q1 | – | – | – | – | – | – | – | – | –
CC(C)(O)C(Cl)(Cl)Cl [Chlorobutanol] | – | – | – | – | – | 1 | 3 | 0 | -20 | Q4 | – | – | – | –
Cc1cc(O)ccc1Cl [Chlorocresol] | – | – | – | – | – | 1 | 11 | 0 | -25 | Q4 | – | – | – | –
CN(C)CCN(Cc1ccc(Cl)cc1)c1ccccn1 [Chloropyramine] | – | – | – | – | – | 1 | 13 | 0 | 25 | Q4 | – | – | – | –
NS(=O)(=O)c1cc2c(cc1Cl)N=CNS2(=O)=O [Chlorothiazide] | – | – | – | – | – | 0 | 3 | 0 | 20 | Q4 | – | – | – | –
Cc1cc(O)cc(C)c1Cl [Chloroxylenol] | – | – | – | – | – | 1 | 7 | 0 | -15 | Q4 | – | – | – | –
NC(=O)OCC(O)COc1ccc(Cl)cc1 (centres unmarked) [Chlorphenesin Carbamate] | – | – | – | – | – | 1 | -4 | 0 | -41 | Q4 | – | – | – | –
CCCNC(=O)NS(=O)(=O)c1ccc(Cl)cc1 [Chlorpropamide] | – | – | – | – | – | 1 | 17 | 1 | 3 | Q4 | – | – | – | –
Cc1ccc2c(Cl)cc(Cl)c(O)c2n1 [Chlorquinaldol] | – | – | – | – | – | 1 | 15 | 0 | -14 | Q4 | – | – | – | –
CN(C)[C@@H]1C(O)=C(C(N)=O)C(=O)[C@@]2(O)C(O)=C3C(=O)c4c(O)ccc(Cl)c4[C@@](C)(O)[C@H]3C[C@@H]12 [Chlortetracycline] | – | – | – | – | – | 1 | -6 | 0 | -15 | Q4 | – | – | – | –
CC(C)CCC[C@@H](C)[C@H]1CC[C@H]2[C@@H]3CC=C4C[C@@H](O)CC[C@]4(C)[C@H]3CC[C@]12C [Cholesterol] | – | – | – | – | – | 0 | 9 | 0 | 4 | Q4 | – | – | – | –
O=C(O)c1cc(=O)c2ccccc2o1 [Chromocarb] | – | – | – | – | – | 1 | 5 | 0 | -7 | Q4 | – | – | – | –
Oc1cc(O)c2c(c1)O[C@H](c1ccc(O)c(O)c1)[C@@H](O)C2 [Cianidanol] | – | – | – | – | – | 0 | 7 | 0 | -19 | Q4 | – | – | – | –
Cc1cc(C2CCCCC2)n(O)c(=O)c1 [Ciclopirox] | – | – | – | – | – | 1 | 40 | 1 | -1 | Q4 | – | – | – | –
CCC(CC)(CC(=O)Nc1cccc(/C=C/c2nc(C3CCC3)cs2)c1)C(=O)O [Cinalukast] | – | – | – | – | – | 1 | -8 | 0 | -21 | Q4 | – | – | – | –
CCCCOc1cc(C(=O)NCCN(CC)CC)c2ccccc2n1 [Cinchocaine] | – | – | – | – | – | 0 | 7 | 0 | -57 | Q4 | – | – | – | –
C=C[C@H]1CN2CC[C@H]1C[C@H]2[C@H](O)c1ccnc2ccccc12 [Cinchonidine] | – | – | – | – | – | 1 | 4 | 0 | 13 | Q4 | – | – | – | –
C=C[C@H]1C[N@@]2CC[C@H]1C[C@@H]2[C@@H](O)c1ccnc2ccccc12 [Cinchonine] | – | – | – | – | – | 1 | 28 | 0 | -6 | Q4 | – | – | – | –
O=C(O)c1cc(-c2ccccc2)nc2ccccc12 [Cinchophen] | – | – | – | – | – | 1 | 36 | 0 | -9 | Q4 | – | – | – | –

Structure (SMILES) | Fibrin % cell toxicity (primary rat microglia [1]; [6]) [%] | inhibition at 10 µM [2, 7] [%] | LPS % cell toxicity (primary rat microglia [3]; [8]) [%] | inhibition at 10 µM [4, 9] [%] | Quadrant (FIG. 5b) [5, 10] | Fibrin % cell toxicity (primary rat microglia [1]; [11]) [%] | inhibition at 10 µM [2, 12] [%] | LPS % cell toxicity (primary rat microglia [3]; [13]) [%] | inhibition at 10 µM [4, 14] [%] | Quadrant (FIG. 5b) ([5]; primary HTS, 10 μM) | LPS % inhibition ([2]; primary microglia HTS, LPS stimulation, increased cell size (>800 μm^2) as marker of activation) [%] | Fibrin % inhibition [4, 9] [%] | LPS % inhibition [2, 12] [%] | Fibrin % inhibition [4, 14] [%]
COc1cc(/C=C/C(=O)N2CCCCCCC2)cc(OC)c1OC [Cinoctramide] | 4 | – | 1 | – | Q2 | – | – | – | – | – | 53 | 90 | – | –
CCn1nc(C(=O)O)c(=O)c2cc3c(cc21)OCO3 [Cinoxacin] | 50 | 115 | 12 | 117 | Q2 | – | – | – | – | – | – | – | – | –
CCNC(=O)/C=C/c1cccc(Br)c1 [Cinromide] | – | – | – | – | – | 1 | 13 | 0 | -10 | Q4 | – | – | – | –
COc1cc(/C=C/C(N)=O)cc(OC)c1OC [Cintriamide] | – | – | – | – | – | 1 | 15 | 0 | -2 | Q4 | – | – | – | –
CC(=O)NC1CCSC1=O (centres unmarked) [Citiolone] | – | – | – | – | – | 0 | 7 | 0 | -32 | Q4 | – | – | – | –
O=C(O)[C@H]1/C(=C/CO)O[C@@H]2CC(=O)N21 [Clavulanate] | – | – | – | – | – | 0 | 5 | 0 | -16 | Q4 | – | – | – | –
C[N+]12CCC(CC1)C(OC(=O)C(O)(c1ccccc1)c1ccccc1)C2 (centres unmarked) [Clidinium Bromide] | – | – | – | – | – | 1 | 9 | 0 | -20 | Q4 | – | – | – | –
CC(C)(C)C(=O)C(Oc1ccc(Cl)cc1)n1ccnc1 (centres unmarked) [Climbazole] | – | – | – | – | – | 1 | 1 | 0 | -10 | Q4 | – | – | – | –
Cl.NC1CCN(c2c(F)cc3c(=O)c(C(=O)O)cn(C4CC4)c3c2Cl)C1 (centres unmarked) [Clinafoxacin Hydrochloride] | – | – | – | – | – | 0 | – | 0 | – | Q4 | – | – | 9 | −22
Oc1c(I)cc(Cl)c2cccnc12 [Clioquinol] | – | – | – | – | – | 1 | 22 | 1 | -11 | Q4 | – | – | – | –
O=P(O)(O)C(Cl)(Cl)P(=O)(O)O [Clodronate] | – | – | – | – | – | 1 | 1 | 0 | -15 | Q4 | – | – | – | –
CC(C)/N=c1\cc2n(-c3ccc(Cl)cc3)c3ccccc3nc-2cc1Nc1ccc(Cl)cc1 [Clofazimine] | – | – | – | – | – | 1 | 15 | 0 | 23 | Q4 | – | – | – | –
CCOC(=O)C(C)(C)Oc1ccc(Cl)cc1 [Clofibrate] | – | – | – | – | – | 0 | 18 | 1 | -20 | Q4 | – | – | – | –
CC(C)(Oc1ccc(Cl)cc1)C(=O)O [Clofibric Acid] | – | – | – | – | – | 1 | 15 | 0 | -27 | Q4 | – | – | – | –
CC(C)(C)CC(C)(C)c1ccc(O)c(Cc2ccc(Cl)cc2Cl)c1 [Clofoctol] | – | – | – | – | – | 0 | 2 | 0 | -26 | Q4 | – | – | – | –
O=C1CN=C(c2ccccc2Cl)c2cc([N+](=O)[O-])ccc2N1 [Clonazepam] | – | – | – | – | – | 0 | -9 | 0 | -12 | Q4 | – | – | – | –
Cc1nc(C)c(Cl)c(O)c1Cl [Clopidol] | – | – | – | – | – | 1 | 9 | 0 | -41 | Q4 | – | – | – | –
Cc1cc(C(C#N)c2ccc(Cl)cc2)c(Cl)cc1NC(=O)c1cc(I)cc(I)c1O (centres unmarked) [Closantel] | – | – | – | – | – | 0 | 5 | 0 | -9 | Q4 | – | – | – | –
